From patent US9211310B2, “Use of a Chinese medicine composition in preparing medicaments for treating secondary prevention of myocardial infarction” (TASLY PHARMACEUTICAL GROUP CO., LTD, priority 2010, dated 2015)

Test system: patients after acute myocardial infarction
Test: TCM symptom score, total and single (chest pain, chest tightness, short breath, fatigue, palpitation, spontaneous perspiration, pale complexion), same clinical trial
Type: in vivo, human
Design: total score of TCM symptom, Mean / total score of TCM symptom, Min / total score of TCM symptom, Max / total score of TCM symptom, Md / change of total score of TCM symptom, Mean / change of total score of TCM symptom, Max / change of total score of TCM symptom, Md: scale not given here
Settings: FAS
Source text: 3508 patients who were in accordance with the diagnostic standards of AMI for 28 days to 2 years and differentiated as Qi deficiency and blood stagnation syndrome by TCM were studied. 0.5 g Chinese medicine composition prepared by the method of EXAMPLE 1 (Coded as QSYQ) was administrated half an hour after meal, 3 times per day.
They included the overall survival time, angina pectoris score, TCM symptom score and life quality score, where angina pectoris score, TCM symptom score and life quality score were evaluated at randomization, in 1st, 3rd, 6th, 9th, 12th month after treatment and 18th month after follow-up.
The analysis method referred to the angina pectoris score.

[1] = 12 months after treatment-baseline

In the case of CC(=O)Oc1ccccc1C(=O)O [Control group, aspirine], the “change of palpitation 3, number of patients” value [1] was 8, the “change of palpitation 3, percent of patients” value [1] was “(0.47%)” and the “change of palpitation −1, percent of patients” value [1] was “(6.55%)”. For the same compound, the “change of palpitation −2, number of patients” value [1] was 4, the “change of palpitation −2, percent of patients” value [1] was “(0.23%)” and the “change of palpitation −3, number of patients” value [1] was 0. The “change of palpitation −3, percent of patients” value [1] was “(0.00%)”, the “change of spontaneous perspiration 0, number of patients” value [1] was 837 and the “change of spontaneous perspiration 0, percent of patients” value [1] was “(48.98%)”. For the same compound, the “change of spontaneous perspiration 1, number of patients” value [1] was 550, the “change of spontaneous perspiration 1, percent of patients” value [1] was “(32.18%)” and the “change of spontaneous perspiration 2, number of patients” value [1] was 139. For the same compound, the “change of spontaneous perspiration 2, percent of patients” value [1] was “(8.13%)”, the “change of spontaneous perspiration 3, number of patients” value [1] was 34 and the “change of spontaneous perspiration 3, percent of patients” value [1] was “(1.99%)”. The “change of spontaneous perspiration −1, number of patients” value [1] was 137, the “change of spontaneous perspiration −1, percent of patients” value [1] was “(8.02%)” and the “change of spontaneous perspiration −2, number of patients” value [1] was 12. The “change of spontaneous perspiration −2, percent of patients” value [1] was “(0.70%)”, the “change of spontaneous perspiration −3, number of patients” value [1] was 0 and the “change of spontaneous perspiration −3, percent of patients” value [1] was “(0.00%)”. The “change of total score of TCM symptom, Max” value [1] was 18.00, the “change of total score of TCM symptom, Md” value [1] was −5.00 and the “change of total score of TCM symptom, Mean” value [1] was −5.39. The “change of total score of TCM symptom, Min” value [1] was −33.00, the “distribution of total score of TCM symptom: Medium, number of patients” value (Baseline) was 817 and the “distribution of total score of TCM symptom: Medium, percentage of patients” value (Baseline) was “(47.83%)”. For the same compound, the “distribution of total score of TCM symptom: Mild, number of patients” value (Baseline) was 828, the “distribution of total score of TCM symptom: Mild, percentage of patients” value (Baseline) was “(48.48%)” and the “distribution of total score of TCM symptom: Severe, number of patients” value (Baseline) was 63. The “distribution of total score of TCM symptom: Severe, percentage of patients” value (Baseline) was “(3.69%)”, the “fatigue score 0, % of patients” value (Baseline) was “(18.42%)” and the “fatigue score 0, number of patients” value (Baseline) was 315. For the same compound, the “fatigue score 2, % of patients” value (Baseline) was “(60.94%)”, the “fatigue score 2, number of patients” value (Baseline) was 1042 and the “fatigue score 4, % of patients” value (Baseline) was “(16.90%)”. The “fatigue score 4, number of patients” value (Baseline) was 289, the “fatigue score 6, % of patients” value (Baseline) was “(3.74%)” and the “fatigue score 6, number of patients” value (Baseline) was 64. For the same compound, the “pale complexion score 0, number of patients” value (Baseline) was 572, the “pale complexion score 0, percent of patients” value (Baseline) was “(33.47%)” and the “pale complexion score 1, number of patients” value (Baseline) was 741. For the same compound, the “pale complexion score 1, percent of patients” value (Baseline) was “(43.36%)”, the “pale complexion score 2, number of patients” value (Baseline) was 325 and the “pale complexion score 2, percent of patients” value (Baseline) was “(19.02%)”. For the same compound, the “pale complexion score 3, number of patients” value (Baseline) was 71, the “pale complexion score 3, percent of patients” value (Baseline) was “(4.15%)” and the “short breath score 0, % of patients” value (Baseline) was “(15.04%)”. For the same compound, the “short breath score 0, number of patients” value (Baseline) was 257, the “short breath score 3, % of patients” value (Baseline) was “(51.84%)” and the “short breath score 3, number of patients” value (Baseline) was 886. The “short breath score 6, % of patients” value (Baseline) was “(31.19%)”, the “short breath score 6, number of patients” value (Baseline) was 533 and the “short breath score 9, % of patients” value (Baseline) was “(1.93%)”. The “short breath score 9, number of patients” value (Baseline) was 33, the “distribution of total score of TCM symptom: Medium, number of patients” value (Follow-up) was 218 and the “distribution of total score of TCM symptom: Medium, percentage of patients” value (Follow-up) was “(15.29%)”. The “distribution of total score of TCM symptom: Mild, number of patients” value (Follow-up) was 1205, the “distribution of total score of TCM symptom: Mild, percentage of patients” value (Follow-up) was “(84.50%)” and the “distribution of total score of TCM symptom: Severe, number of patients” value (Follow-up) was 3. For the same compound, the “distribution of total score of TCM symptom: Severe, percentage of patients” value (Follow-up) was “(0.21%)”, the “fatigue score 0, % of patients” value (Follow-up) was “(42.76%)” and the “fatigue score 0, number of patients” value (Follow-up) was 611. For the same compound, the “fatigue score 2, % of patients” value (Follow-up) was “(53.11%)”, the “fatigue score 2, number of patients” value (Follow-up) was 759 and the “fatigue score 4, % of patients” value (Follow-up) was “(3.92%)”. The “fatigue score 4, number of patients” value (Follow-up) was 56, the “fatigue score 6, % of patients” value (Follow-up) was “(0.21%)” and the “fatigue score 6, number of patients” value (Follow-up) was 3. For the same compound, the “pale complexion score 0, number of patients” value (Follow-up) was 882, the “pale complexion score 0, percent of patients” value (Follow-up) was “(61.72%)” and the “pale complexion score 1, number of patients” value (Follow-up) was 465. The “pale complexion score 1, percent of patients” value (Follow-up) was “(32.54%)”, the “pale complexion score 2, number of patients” value (Follow-up) was 76 and the “pale complexion score 2, percent of patients” value (Follow-up) was “(5.32%)”. The “pale complexion score 3, number of patients” value (Follow-up) was 6, the “pale complexion score 3, percent of patients” value (Follow-up) was “(0.42%)” and the “palpitation score 0, number of patients” value (Follow-up) was 631. The “palpitation score 0, percent of patients” value (Follow-up) was “(44.16%)”, the “palpitation score 2, number of patients” value (Follow-up) was 697 and the “palpitation score 2, percent of patients” value (Follow-up) was “(48.78%)”. For the same compound, the “palpitation score 4, number of patients” value (Follow-up) was 95, the “palpitation score 4, percent of patients” value (Follow-up) was “(6.65%)” and the “palpitation score 6, number of patients” value (Follow-up) was 6. The “palpitation score 6, percent of patients” value (Follow-up) was “(0.42%)”, the “short breath score 0, % of patients” value (Follow-up) was “(35.62%)” and the “short breath score 0, number of patients” value (Follow-up) was 509. The “short breath score 2, % of patients” value (Follow-up) was “(0.07%)”, the “short breath score 2, number of patients” value (Follow-up) was 1 and the “short breath score 3, % of patients” value (Follow-up) was “(54.51%)”. The “short breath score 3, number of patients” value (Follow-up) was 779, the “short breath score 6, % of patients” value (Follow-up) was “(9.59%)” and the “short breath score 6, number of patients” value (Follow-up) was 137. The “short breath score 9, % of patients” value (Follow-up) was “(0.21%)”, the “short breath score 9, number of patients” value (Follow-up) was 3 and the “spontaneous perspiration score 0, number of patients” value (Follow-up) was 767. The “spontaneous perspiration score 0, percent of patients” value (Follow-up) was “(53.71%)”, the “spontaneous perspiration score 1, number of patients” value (Follow-up) was 595 and the “spontaneous perspiration score 1, percent of patients” value (Follow-up) was “(41.67%)”. For the same compound, the “spontaneous perspiration score 2, number of patients” value (Follow-up) was 62, the “spontaneous perspiration score 2, percent of patients” value (Follow-up) was “(4.34%)” and the “spontaneous perspiration score 3, number of patients” value (Follow-up) was 4. The “spontaneous perspiration score 3, percent of patients” value (Follow-up) was “(0.28%)”, the “total score of TCM symptom, Max” value (Follow-up) was 32.00 and the “total score of TCM symptom, Md” value (Follow-up) was 7.00. For the same compound, the “total score of TCM symptom, Mean” value (Follow-up) was 7.71, the “total score of TCM symptom, Min” value (Follow-up) was 0.00 and the “change of fatigue 0, % of patients” value (Follow-up-baseline) was “(42.67%)”. The “change of fatigue 0, number of patients” value (Follow-up-baseline) was 608, the “change of fatigue 2, % of patients” value (Follow-up-baseline) was “(37.68%)” and the “change of fatigue 2, number of patients” value (Follow-up-baseline) was 537. The “change of fatigue 4, % of patients” value (Follow-up-baseline) was “(11.09%)”, the “change of fatigue 4, number of patients” value (Follow-up-baseline) was 158 and the “change of fatigue 6, % of patients” value (Follow-up-baseline) was “(2.11%)”. The “change of fatigue 6, number of patients” value (Follow-up-baseline) was 30, the “change of fatigue −2, % of patients” value (Follow-up-baseline) was “(6.11%)” and the “change of fatigue −2, number of patients” value (Follow-up-baseline) was 87. The “change of fatigue −4, % of patients” value (Follow-up-baseline) was “(0.35%)”, the “change of fatigue −4, number of patients” value (Follow-up-baseline) was 5 and the “change of pale complexion 0, number of patients” value (Follow-up-baseline) was 950. For the same compound, the “change of pale complexion 0, percent of patients” value (Follow-up-baseline) was “(66.95%)”, the “change of pale complexion 1, number of patients” value (Follow-up-baseline) was 430 and the “change of pale complexion 1, percent of patients” value (Follow-up-baseline) was “(30.30%)”.
